Laboratory results from patent US11767323B2, “Tricyclic pyridone compounds as JAK2 V617F inhibitors” (Incyte Corporation, priority 2020, dated 2023).

Columns and labels:
[1] = biological target: catalytic domain (JH1, amino acids 826-1132) of human JAK2 (Homo sapiens (Human), UniProt O60674); assay: JAK2 LanthaScreen JH1 Binding Assay; details: JAK2 JH1 1.5 nM, 50 nM tracer, 2 hours at 25° C.; read-out: JH1 BIND IC50
Experimental: Example A. JAK2 LanthaScreen JH1 Binding Assay
JAK2 JH1 binding assay utilizes catalytic domain (JH1, amino acids 826-1132) of human JAK2 expressed as N-terminal FLAG-tagged, biotinylated protein in a baculovirus expression system (Carna Biosciences, Product #08-445-20N). The assay was conducted in black 384-well polystyrene plates in a final reaction volume of 20 μL. JAK2 JH1 (1.5 nM) was incubated with compounds (100 nL serially diluted in DMSO) in the presence of 50 nM Fluorescent JAK2-JH1 Tracer and 0.5 nM Streptavidin-Tb cryptate (Cisbio Part #610SATLB) in assay buffer (50 mM Tris, pH=7.5, 10 mM MgCl2, 0.01% Brij-35, 0.1% BSA, 1 mM EGTA, 5% Glycerol and 5 mM DTT). Non-specific binding was accessed in the presence of 2 mM ATP. After incubation for 2 hours at 25° C., LanthaScreen signals were read on a PHERAstar FS plate reader (BMG LABTECH). Data was analyzed with IDBS XLfit and GraphPad Prism 5.0 software using a four parameter dose response curve to determine IC50 for each compound.

[2] = biological target: pseudo-kinase domain (JH2, amino-acids 536-812) of human Wild Type JAK2 (Homo sapiens (Human), UniProt O60674, F794H/W659A/W777A); assay: JAK2 LanthaScreen JH2-WT Binding Assay; details: JAK2 JH2-WT 0.145 nM, 50 nM tracer, 1 hour at 25° C.; read-out: JH2 BIND WT IC50
Sequence of pseudo-kinase domain (JH2, amino-acids 536-812) of human Wild Type JAK2 (O60674 536-812 W659A/W777A/F794H): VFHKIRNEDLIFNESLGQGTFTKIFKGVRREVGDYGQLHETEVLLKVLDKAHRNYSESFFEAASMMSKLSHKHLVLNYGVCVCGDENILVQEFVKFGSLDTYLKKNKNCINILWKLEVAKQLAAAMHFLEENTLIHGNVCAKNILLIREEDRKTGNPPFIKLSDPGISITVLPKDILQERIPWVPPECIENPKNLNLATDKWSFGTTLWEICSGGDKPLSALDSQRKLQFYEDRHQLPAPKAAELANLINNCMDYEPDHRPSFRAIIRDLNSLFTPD
Experimental: Example B. JAK2 LanthaScreen JH2-WT Binding Assay
(§1) JAK2 JH2-WT binding assay utilizes pseudo-kinase domain (JH2, amino-acids 536-812 with 3 surface mutations W659A, W777A, F794H) of human Wild Type JAK2 expressed as C-terminal His-Avi-tagged, biotinylated protein in a baculovirus expression system (BPS Bioscience, Catalog #79463). The assay was conducted in black 384-well polystyrene plates in a final reaction volume of 20 μL. JAK2 JH2-WT (0.145 nM) was incubated with compounds (100 nL serially diluted in DMSO) in the presence of 50 nM Fluorescent JAK2-JH2 Tracer (MedChem Express Catalog #HY-102055) and 0.25 nM Streptavidin-Tb cryptate (Cisbio Part #610SATLB) in assay buffer (50 mM Tris, pH=7.5, 10 mM MgCl2, 0.01% Brij-35, 0.1% BSA, 1 mM EGTA, 5% Glycerol and 5 mM DTT). Non-specific binding was accessed in the presence of 2 mM ATP. After incubation for 1 hour at 25° C., LanthaScreen signals were read on a PHERAstar FS plate reader (BMG LAB TECH). Data was analyzed with IDBS XLfit and GraphPad Prism 5.0 software using a four parameter dose response curve to determine IC50 for each compound.

[3] = biological target: pseudo-kinase domain (JH2, amino-acids 536-812) of human V617F mutant JAK2 (Homo sapiens (Human), UniProt O60674, F794H/V617F/W659A/W777A); assay: JAK2 LanthaScreen JH2-V617F Binding Assay; details: JAK2 JH2-V617F 0.26 nM, 50 nM tracer, 1 hour at 25° C.; read-out: JH2 BIND V617F IC50
Sequence of pseudo-kinase domain (JH2, amino-acids 536-812) of human V617F mutant JAK2 (O60674 536-812 V617F/W659A/W777A/F794H): as the sequence (O60674 536-812 W659A/W777A/F794H) above, with V82F counted along it
Experimental: Example C. JAK2 LanthaScreen JH2-V617F Binding Assay
as §1, with “JH2-V617F” for “JH2-WT”, “V617F mutant” for “Wild Type”, “#79498).” for “#79463).”, “JH2-V617F (0.26” for “JH2-WT (0.145”, “LABTECH).” for “LAB TECH).”

[4] = biological target: catalytic domain (JH1, amino acids 808-1132) of human JAK2 (Homo sapiens (Human), UniProt O60674); assay: JAK2 HTRF Enzyme Activity Assay; assay type: biochemical; details: JAK2 0.015 nM, ATP (30 μM or 1 mM), 60 minutes at 25° C.
Sequence of catalytic domain (JH1, amino acids 808-1132) of human JAK2 (O60674 808-1132): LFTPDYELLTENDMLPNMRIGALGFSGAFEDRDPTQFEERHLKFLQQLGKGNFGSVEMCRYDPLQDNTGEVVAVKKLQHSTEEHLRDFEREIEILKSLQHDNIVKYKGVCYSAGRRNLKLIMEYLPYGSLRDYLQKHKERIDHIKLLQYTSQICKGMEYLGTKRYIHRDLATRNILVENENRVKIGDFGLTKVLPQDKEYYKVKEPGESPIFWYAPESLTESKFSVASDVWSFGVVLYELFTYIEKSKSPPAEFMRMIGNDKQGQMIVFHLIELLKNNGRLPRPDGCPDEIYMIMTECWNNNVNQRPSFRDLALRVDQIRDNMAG
Experimental: Example D. JAK2 HTRF Enzyme Activity Assay
JAK2 enzyme activity assays utilize catalytic domain (JH1, amino acids 808-1132) of human JAK2 expressed as N-terminal His-tagged protein in a baculovirus expression system (BPS Bioscience, Catalog #40450). The assays was conducted in black 384-well polystyrene plates in a final reaction volume of 20 μL. JAK2 (0.015 nM) was incubated with compounds (100 nL serially diluted in DMSO) in the presence of ATP (30 μM or 1 mM) and 500 nM Biotin-labeled EQEDEPEGDYFEWLE (SEQ ID NO.: 1) peptide (BioSource International, custom synthesis) in assay buffer (50 mM Tris, pH=7.5, 10 mM MgCl2, 0.01% Brij-35, 0.1% BSA, 1 mM EGTA, 5% Glycerol and 5 mM DTT) for 60 minutes at 25° C. The reactions were stopped by the addition of 10 μL of detection buffer (50 mM Tris, pH 7.8, 0.5 mg/mL BSA, 150 mM NaCl), supplemented with EDTA, LANCE Eu-W1024 anti-phosphotyrosine (PY20), (PerkinElmer, Catalog #AD0067) and Streptavidin SureLight APC (PerkinElmer Catalog #CR130-100), for a final concentration of 15 mM, 1.5 nM and 75 nM, respectively. HTRF signals were read after 30 minutes incubation at room temperature on a PHERAstar FS plate reader (BMG LAB TECH). Data was analyzed with IDBS XLfit and GraphPad Prism 5.0 software using a four parameter dose response curve to determine IC50 for each compound.

Sequence of catalytic domain (JH1, amino acids 826-1132) of human JAK2 (O60674 826-1132): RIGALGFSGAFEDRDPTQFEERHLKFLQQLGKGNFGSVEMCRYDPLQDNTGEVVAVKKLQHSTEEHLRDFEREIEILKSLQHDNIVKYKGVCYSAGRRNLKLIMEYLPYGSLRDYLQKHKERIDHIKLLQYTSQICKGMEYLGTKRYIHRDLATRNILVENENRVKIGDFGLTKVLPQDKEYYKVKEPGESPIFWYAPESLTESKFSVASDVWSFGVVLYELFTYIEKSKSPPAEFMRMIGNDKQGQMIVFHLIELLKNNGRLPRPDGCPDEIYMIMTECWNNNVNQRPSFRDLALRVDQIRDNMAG

SMILES	IC50 [1]	IC50 [2]	IC50 [3]	IC50 [4]
Cc1cc(-c2c(-c3ccc(-c4cnn(C)c4C)cc3)c3c4cc(-c5cnn(C)c5)[nH]c4ncc3n(C)c2=O)on1 [Example 31, 9-(4-(1,5-Dimethyl-1H-pyrazol-4-yl)phenyl)-6-methyl-2-(1-methyl-1H-pyrazol-4-yl)-8-(3-methylisoxazol-5-yl)-3,6-dihydro-7H-pyrrolo[3,2-f][1,7]naphthyridin-7-one]	500 to 1000 nM	≤ 100 nM	≤ 100 nM	500 to 1000 nM
CC(=O)N1CC[C@H](c2cc3c4c(-c5ccccc5)c(-c5ccc(CN6CCC(S(C)(=O)=O)CC6)cc5)[nH]c4ncc3n(C)c2=O)C1 [Example 37, (R)-8-(1-acetylpyrrolidin-3-yl)-6-methyl-2-(4-((4-(methylsulfonyl)piperidin-1-yl)methyl)phenyl)-1-phenyl-3,6-dihydro-7/7-pyrrolo[3,2-f][1,7]naphthyridin-7-one]	≤ 100 nM	≤ 100 nM	≤ 100 nM	≤ 100 nM
CS(=O)(=O)C1CCN(Cc2ccc(-c3cc4c(ncc5[nH]c(=O)c(C#N)cc54)[nH]3)cc2)CC1 [Example 3, 2-(4-((4-(Methylsulfonyl)piperidin-1-yl)methyl)phenyl)-7-oxo-6,7-dihydro-3H-pyrrolo[3,2-f][1,7]naphthyridine-8-carbonitrile]	> 10000 nM	1000 to 10000 nM	1000 to 10000 nM	> 10000 nM
Cc1cc(-c2c(C3CCN(S(C)(=O)=O)C3)c3c4cc(-c5cnn(C)c5)[nH]c4ncc3n(C)c2=O)on1 (stereo not drawn) [Example 33, 6-Methyl-2-(1-methyl-1H-pyrazol-4-yl)-8-(3-methylisoxazol-5-yl)-9-(1-(methylsulfonyl)pyrrolidin-3-yl)-3,6-dihydro-7H-pyrrolo[3,2-f][1,7]naphthyridin-7-one]	100 to 500 nM	≤ 100 nM	≤ 100 nM	100 to 500 nM
CN(C)C(=O)c1ccc(-c2c(-c3cnn(C)c3)[nH]c3ncc4c(cc(N5CCC6(CCOC6)CC5)c(=O)n4C)c23)cc1 [Example 41, N,N-dimethyl-4-(6-methyl-2-(1-methyl-1H-pyrazol-4-yl)-7-oxo-8-(2-oxa-8-azaspiro[4.5]decan-8-yl)-6,7-dihydro-3H-pyrrolo[3,2-f][1,7]naphthyridin-1-yl)benzamide]	1000 to 10000 nM	100 to 500 nM	500 to 1000 nM	1000 to 10000 nM
COCCN(C)c1ccc(-c2c(-c3cc(C)no3)c(=O)n(C)c3cnc4[nH]c(-c5cnn(C)c5)cc4c23)cc1 [Example 29, 9-(4-((2-Methoxyethyl)(methyl)amino)phenyl)-6-methyl-2-(1-methyl-1H-pyrazol-4-yl)-8-(3-methylisoxazol-5-yl)-3,6-dihydro-7H-pyrrolo[3,2-f][1,7]naphthyridin-7-one]	100 to 500 nM	≤ 100 nM	≤ 100 nM	100 to 500 nM
CS(=O)(=O)C1CCN(Cc2ccc(-c3cc4c(ncc5[nH]c(=O)c(-c6nnn[nH]6)cc54)[nH]3)cc2)CC1 [Example 5, 2-(4-((4-(Methylsulfonyl)piperidin-1-yl)methyl)phenyl)-8-(1H-tetrazol-5-yl)-3,6-dihydro-7H-pyrrolo[3,2-f][1,7]naphthyridin-7-one]	> 10000 nM	500 to 1000 nM	1000 to 10000 nM	1000 to 10000 nM
Cc1cc(-c2c(-c3ccc(C(=O)Nc4ccc5oc(C)nc5c4)cc3)c3c4cc(-c5cnn(C)c5)[nH]c4ncc3n(C)c2=O)on1 [Example 26, 4-(6-Methyl-2-(1-methyl-1H-pyrazol-4-yl)-8-(3-methylisoxazol-5-yl)-7-oxo-6,7-dihydro-3H-pyrrolo[3,2-f][1,7]naphthyridin-9-yl)-A-(2-methylbenzo[d]oxazol-5-yl)benzamide]	100 to 500 nM	≤ 100 nM	≤ 100 nM	100 to 500 nM
Cc1cc(-c2c(-c3ccc(C(=O)NCCO)cc3)c3c4cc(-c5cnn(C)c5)[nH]c4ncc3n(C)c2=O)on1 [Example 25, N-(2-hydroxyethyl)-4-(6-methyl-2-(1-methyl-1H-pyrazol-4-yl)-8-(3-methylisoxazol-5-yl)-7-oxo-6,7-dihydro-3H-pyrrolo[3,2-f][1,7]naphthyridin-9-yl)benzamide]	500 to 1000 nM	≤ 100 nM	≤ 100 nM	100 to 500 nM
CCn1c(=O)c(-c2ccc(C(=O)O)cc2)cc2c3cc(-c4ccc(CN5CCC(S(C)(=O)=O)CC5)cc4)[nH]c3ncc21 [Example 15, 4-(6-Ethyl-2-(4-((4-(methylsulfonyl)piperidin-1-yl)methyl)phenyl)-7-oxo-6,7-dihydro-3H-pyrrolo[3,2-f][1,7]naphthyridin-8-yl)benzoic acid]	1000 to 10000 nM	500 to 1000 nM	1000 to 10000 nM	1000 to 10000 nM
Cc1c(-c2cccc(Cl)c2)c(=O)n(C)c2cnc3[nH]c(-c4ccc(CN5CCC(S(C)(=O)=O)CC5)cc4)cc3c12 [Example 11, 8-(3-Chlorophenyl)-6,9-dimethyl-2-(4-((4-(methylsulfonyl)piperidin-1-yl)methyl)phenyl)-3,6-dihydro-7H-pyrrolo[3,2-f][1,7]naphthyridin-7-one]	≤ 100 nM	≤ 100 nM	≤ 100 nM	≤ 100 nM
Cc1c(-c2ccc(C#N)cc2)c(=O)n(C)c2cnc3[nH]c(-c4ccc(CN5CCC(S(C)(=O)=O)CC5)cc4)cc3c12 [Example 13, 4-(6,9-Dimethyl-2-(4-((4-(methylsulfonyl)piperidin-1-yl)methyl)phenyl)-7-oxo-6,7-dihydro-3H-pyrrolo[3,2-f][1,7]naphthyridin-8-yl)benzonitrile]	100 to 500 nM	≤ 100 nM	≤ 100 nM	100 to 500 nM
